# pIC50: −log10 of the molar value.
# Test system: K24384-001-R-PDC complex spheroid growth
# Assay: Anticancer human tumor K24384-001-R-PDC patient-derived pancreatic adenocarcinoma cell line growth inhibition [AhR]
# Details: for pIC50: curve of first compound; for viability, T/C: stronger effect = lower value
# Excerpt: Multicellular complex tumor spheroid response to aryl hydrocarbon receptor antagonists in combination with a variety of drugs and investigational agents in selected tumor cell lines
# The current study was undertaken to assess response to aryl hydrocarbon receptor antagonists in combination with standard-of-care drugs and investigational agents in solid tumor complex spheroid models. Complex spheroids include a stromal component modeled by human endothelial cells (HUVEC) and fibroblasts modeled by human mesenchymal stem cells (MSCs). The concentration ranges selected for each drug and investigational agent were based upon clinically achievable concentrations if the clinical Cmax of the agent was known.
# Compounds. The drugs and investigational agents: BAY 2416964 (NSC825713), GNF351 (NSC835774), CH-223191 (NSC835775), CPI-455 (NSC825282), aza-TdCyd (NSC777586), decitabine (NSC127716), belinostat (NSC758774), entinostat (NSC756642), pevonedistat (NSC761192), tazemetostat (NSC777109), talazoparib (NSC765396), olaparib (NSC753686), selinexor (NSC780203), nedisertib (M3814, NSC802822), bortezomib (NSC756655), venetoclax (NSC766270), doxorubicin (NSC123127), elimusertib (BAY189344, NSC800525), ceralasertib (AZD6738, NSC777638), TAK-243 (NSC785004), alisertib (NSC759677), etoposide (NSC141540), topotecan (NSC609699), eribulin (NSC707389), gemcitabine (NSC613327), carboplatin (NSC241240), cisplatin (NSC119875), and SN-38 (NSC673596) were obtained from the National Cancer Institute (NCI) Developmental Therapeutics Program Chemical Repository (32). The FDA-approved anticancer drug set is available from the Developmental Therapeutics Program at https://dtp.cancer.gov/organization/dscb/obtaining/available plates.htm. […] The stock solutions were prepared in dimethyl sulfoxide (DMSO, Sigma-Aldrich, St. Louis, MO, cat. D2650), except for the platinum compounds which were prepared in saline (Quality Biological, Gaithersburg, MD, cat. 114-055-101), at 800-fold the tested concentration and stored at -70 degrees C prior to their use. All drugs and investigational agents were tested over a range starting from a high concentration at or near the clinical Cmax and decreasing in half-log increments. If the clinical Cmax for an agent had not been determined, the highest concentration tested was 10 microM (Table 1).
# Cell Culture. All cells were maintained in an incubator at 37 degrees C and 5% CO2 with 95% humidity. The PDC lines were cultured according to standard operating procedures established by the NCI PDMR (https://pdmr.cancer.gov). Briefly, all PDCs were thawed and cultured in Matrigel-coated flasks prepared with a working solution of 1X Ham's F-12 nutrient mix, without supplementation (Invitrogen, Waltham, MA, cat. 11765054), 100 U/mL penicillin-streptomycin (Invitrogen, cat. 15140122), and 2.5% Matrigel (Corning Inc., Corning, NY, cat. 354248) for the first three passages. All PDCs were cultured in complete DMEM/F-12 media containing advanced DMEM/F-12 (Invitrogen, cat. 12634028), 4.9% defined fetal bovine serum, heat inactivated (HyClone Laboratories Inc., Logan, UT, cat. SH30070.03HI), 389 ng/mL hydrocortisone (Sigma-Aldrich, cat. H4001), 9.7 ng/mL human EGF recombinant protein (Invitrogen, cat. PHG0313), 23.4 microg/mL adenine (Sigma-Aldrich, cat. A2786), 97.3 U/mL penicillin-streptomycin (Invitrogen, cat. 15140122), 1.9 mM L-glutamine (Invitrogen, cat. 25030081), and 9.7 microM Y-27632 dihydrochloride (Tocris Bioscience, Bristol, United Kingdom, cat. 1254). The PDCs were cultured in complete DMEM/F12 media without 10 microM Y-27632 dihydrochloride for at least two passages prior to the screen. The established cell lines NCI-H1341 and […] were cultured in DMEM/F-12, HEPES (Invitrogen, cat. 11330032), 5% defined fetal bovine serum (HyClone Laboratories Inc., cat. SH30070.03), ITS premix universal culture supplement [insulin (5 microg/mL), transferrin (5 microg/mL), and selenious acid (5 ng/mL)] […]
# [1] = second compound 0.1 µM, first compound 0.0316 µM
# [2] = second compound 0.1 µM, first compound 0.1 µM
# [3] = second compound 0.1 µM, first compound 0.316 µM
# [4] = second compound 0.1 µM, first compound 1 µM
# [5] = second compound 0.1 µM, first compound 3.16 µM
# [6] = second compound 0.1 µM, first compound 10 µM
# [7] = second compound 0.316 µM, first compound 0.0316 µM
# [8] = second compound 0.316 µM, first compound 0.1 µM
# [9] = second compound 0.316 µM, first compound 0.316 µM
# [10] = second compound 0.316 µM, first compound 1 µM
# [11] = second compound 0.316 µM, first compound 3.16 µM
# [12] = second compound 0.316 µM, first compound 10 µM
# [13] = second compound 1 µM, first compound 0.0316 µM
# [14] = second compound 1 µM, first compound 0.1 µM
# [15] = second compound 1 µM, first compound 0.316 µM
# [16] = second compound 1 µM, first compound 1 µM
# [17] = second compound 1 µM, first compound 3.16 µM
# [18] = second compound 1 µM, first compound 10 µM
# [19] = second compound 3.16 µM, first compound 0.0316 µM
# [20] = second compound 3.16 µM, first compound 0.1 µM
# [21] = second compound 3.16 µM, first compound 0.316 µM
# [22] = second compound 3.16 µM, first compound 1 µM
# [23] = second compound 3.16 µM, first compound 3.16 µM
# [24] = second compound 3.16 µM, first compound 10 µM
# [25] = second compound 10 µM, first compound 0.0316 µM
# [26] = second compound 10 µM, first compound 0.1 µM
# [27] = second compound 10 µM, first compound 0.316 µM
# [28] = second compound 10 µM, first compound 1 µM
# [29] = second compound 10 µM, first compound 3.16 µM
# [30] = second compound 10 µM, first compound 10 µM
# 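For viability, T/C in this document: percent of DMSO vehicle-treated spheroid viability set as 100%.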
smiles,measurement,setting,value
CC(C)CC(NC(=O)C(Cc1ccccc1)NC(=O)c1cnccn1)B(O)O (stereo not given) + CC(CO)NC(=O)c1cc(-c2ccc(Cl)cc2)nn(-c2cnn(C)c2)c1=O,pIC50,second compound 0.1 µM,8.18
same,pIC50,second compound 0.316 µM,8.15
same,pIC50,second compound 1 µM,8.18
same,pIC50,second compound 3.16 µM,8.25
same,pIC50,second compound 10 µM,8.22
same,"viability, T/C","second compound 0.1 µM, first compound 0.000949 µM",118%
same,"viability, T/C","second compound 0.1 µM, first compound 0.003 µM",110%
same,"viability, T/C","second compound 0.1 µM, first compound 0.00949 µM",22%
same,"viability, T/C","second compound 0.1 µM, first compound 0.03 µM",0.35%
same,"viability, T/C","second compound 0.1 µM, first compound 0.0949 µM",0.73%
same,"viability, T/C","second compound 0.1 µM, first compound 0.3 µM",0.34%
same,"viability, T/C","second compound 0.316 µM, first compound 0.000949 µM",133%
same,"viability, T/C","second compound 0.316 µM, first compound 0.003 µM",125%
same,"viability, T/C","second compound 0.316 µM, first compound 0.00949 µM",25.6%
same,"viability, T/C","second compound 0.316 µM, first compound 0.03 µM",0.68%
same,"viability, T/C","second compound 0.316 µM, first compound 0.0949 µM",0.25%
same,"viability, T/C","second compound 0.316 µM, first compound 0.3 µM",0.3%
same,"viability, T/C","second compound 1 µM, first compound 0.000949 µM",108%
same,"viability, T/C","second compound 1 µM, first compound 0.003 µM",108%
same,"viability, T/C","second compound 1 µM, first compound 0.00949 µM",22.2%
same,"viability, T/C","second compound 1 µM, first compound 0.03 µM",0.35%
same,"viability, T/C","second compound 1 µM, first compound 0.0949 µM",0.3%
same,"viability, T/C","second compound 1 µM, first compound 0.3 µM",0.35%
same,"viability, T/C","second compound 3.16 µM, first compound 0.000949 µM",83.6%
same,"viability, T/C","second compound 3.16 µM, first compound 0.003 µM",99.2%
same,"viability, T/C","second compound 3.16 µM, first compound 0.00949 µM",14.6%
same,"viability, T/C","second compound 3.16 µM, first compound 0.03 µM",0.34%
same,"viability, T/C","second compound 3.16 µM, first compound 0.0949 µM",0.32%
same,"viability, T/C","second compound 3.16 µM, first compound 0.3 µM",0.31%
same,"viability, T/C","second compound 10 µM, first compound 0.000949 µM",107%
same,"viability, T/C","second compound 10 µM, first compound 0.003 µM",110%
same,"viability, T/C","second compound 10 µM, first compound 0.00949 µM",12%
same,"viability, T/C","second compound 10 µM, first compound 0.03 µM",0.84%
same,"viability, T/C","second compound 10 µM, first compound 0.0949 µM",0.35%
same,"viability, T/C","second compound 10 µM, first compound 0.3 µM",0.9%
Nc1ccccc1NC(=O)c1ccc(CNC(=O)OCc2cccnc2)cc1 + CC(CO)NC(=O)c1cc(-c2ccc(Cl)cc2)nn(-c2cnn(C)c2)c1=O,pIC50,second compound 0.1 µM,5.71
same,pIC50,second compound 0.316 µM,5.87
same,pIC50,second compound 1 µM,5.93
same,pIC50,second compound 3.16 µM,6.01
same,pIC50,second compound 10 µM,6.24
same,"viability, T/C",[1],100%
same,"viability, T/C",[2],101%
same,"viability, T/C",[3],88.2%
same,"viability, T/C",[4],60.9%
same,"viability, T/C",[5],41.8%
same,"viability, T/C",[6],6.28%
same,"viability, T/C",[7],87.6%
same,"viability, T/C",[8],97.7%
same,"viability, T/C",[9],80.6%
same,"viability, T/C",[10],53.2%
same,"viability, T/C",[11],31.8%
same,"viability, T/C",[12],4.37%
same,"viability, T/C",[13],88.2%
same,"viability, T/C",[14],94.8%
same,"viability, T/C",[15],92.1%
same,"viability, T/C",[16],47.4%
same,"viability, T/C",[17],28.8%
same,"viability, T/C",[18],4.21%
same,"viability, T/C",[19],83.7%
same,"viability, T/C",[20],92.4%
same,"viability, T/C",[21],79%
same,"viability, T/C",[22],44.6%
same,"viability, T/C",[23],24.2%
same,"viability, T/C",[24],1.77%
same,"viability, T/C",[25],70.9%
same,"viability, T/C",[26],72.8%
same,"viability, T/C",[27],55.9%
same,"viability, T/C",[28],40.5%
same,"viability, T/C",[29],25.1%
same,"viability, T/C",[30],0.88%
O=C(C=Cc1cccc(S(=O)(=O)Nc2ccccc2)c1)NO + CC(CO)NC(=O)c1cc(-c2ccc(Cl)cc2)nn(-c2cnn(C)c2)c1=O,pIC50,second compound 0.1 µM,5.80
same,pIC50,second compound 0.316 µM,5.66
same,pIC50,second compound 1 µM,5.70
same,pIC50,second compound 3.16 µM,5.80
same,pIC50,second compound 10 µM,5.74
same,"viability, T/C",[1],97.1%
same,"viability, T/C",[2],126%
same,"viability, T/C",[3],126%
same,"viability, T/C",[4],65.4%
same,"viability, T/C",[5],28.5%
same,"viability, T/C",[6],2.04%
same,"viability, T/C",[7],119%
same,"viability, T/C",[8],130%
same,"viability, T/C",[9],122%
same,"viability, T/C",[10],96.1%
same,"viability, T/C",[11],29.3%
same,"viability, T/C",[12],1.86%
same,"viability, T/C",[13],123%
same,"viability, T/C",[14],127%
same,"viability, T/C",[15],137%
same,"viability, T/C",[16],81%
same,"viability, T/C",[17],30.5%
same,"viability, T/C",[18],1.91%
same,"viability, T/C",[19],107%
same,"viability, T/C",[20],103%
same,"viability, T/C",[21],136%
same,"viability, T/C",[22],73.3%
same,"viability, T/C",[23],20.5%
same,"viability, T/C",[24],1%
same,"viability, T/C",[25],107%
same,"viability, T/C",[26],117%
same,"viability, T/C",[27],98.9%
same,"viability, T/C",[28],73%
same,"viability, T/C",[29],28.4%
same,"viability, T/C",[30],0.81%
